Results: ChEMBL document CHEMBL1143487, “Solid support synthesis of 6-aryl-2-substituted pyrimidin-4-yl phenols as anti-infective agents” (2005)
Values after ≈ are worked out from the molar mass of the structure shown. Active and inactive are the calls of the source. The calls are words filed in the database; no cut-off is given here.

Columns and labels:
Plasmodium falciparum = assay: Minimum inhibitory concentration against Plasmodium falciparum; assay type: functional
[1] = test system: Mycobacterium tuberculosis; assay: Minimum inhibitory concentration against Mycobacterium tuberculosis; - = inactive; assay type: functional, organism-based
[2] = test system: Mycobacterium tuberculosis; assay: Minimum inhibitory concentration against Mycobacterium tuberculosis; assay type: functional

With `COc1ccc(-c2cc(-c3ccc(O)cc3)nc(N3CCN(c4ccccc4)CC3)n2)cc1OC` the MIC (Plasmodium falciparum) was 1 µg/mL (≈ 2.13 µM) and the MIC [1] was “inactive”.

`COc1ccc(OC)c(-c2cc(-c3ccc(O)cc3)nc(N3CCCCC3)n2)c1` was tested, and the MIC (Plasmodium falciparum) was 1 µg/mL (≈ 2.55 µM) and the MIC [2] was 25 µg/mL (≈ 63.9 µM).

`COc1ccc(OC)c(-c2cc(-c3ccc(O)cc3)nc(N)n2)c1` gave an MIC (Plasmodium falciparum) of 10 µg/mL (≈ 30.9 µM) and an MIC [2] of 25 µg/mL (≈ 77.3 µM).

`Oc1ccc(-c2cc(-c3ccccc3)nc(N3CCCC3)n2)cc1` was tested, and the MIC (Plasmodium falciparum) was 2 µg/mL (≈ 6.3 µM) and the MIC [2] was 25 µg/mL (≈ 78.8 µM).

In the case of `COc1ccc(-c2cc(-c3ccc(O)cc3)nc(N3CCCC3)n2)cc1`, the MIC (Plasmodium falciparum) is reported as 1 µg/mL (≈ 2.88 µM) and the MIC [1] is reported as “inactive”.

In the case of `COc1ccc(-c2cc(-c3ccc(O)cc3)nc(N3CCN(c4ccccc4)CC3)n2)cc1`, the MIC (Plasmodium falciparum) is reported as 2 µg/mL (≈ 4.56 µM) and the MIC [1] is reported as “inactive”.

For `Oc1ccc(-c2cc(-c3ccccc3)nc(N3CCN(Cc4ccccc4)CC3)n2)cc1`, the MIC (Plasmodium falciparum) was 1 µg/mL (≈ 2.37 µM) and the MIC [2] was 25 µg/mL (≈ 59.2 µM).

With `Cc1ccc(-c2cc(-c3ccc(O)cc3)nc(N3CCCC3)n2)cc1` the MIC (Plasmodium falciparum) was 2 µg/mL (≈ 6.03 µM) and the MIC [1] was “inactive”.

Molecule `Cc1ccc(-c2cc(-c3ccc(O)cc3)nc(N3CCN(C)CC3)n2)cc1` has an MIC (Plasmodium falciparum) of 1 µg/mL (≈ 2.77 µM) and an MIC [2] of 25 µg/mL (≈ 69.4 µM).

With `COc1ccc(-c2cc(-c3ccc(O)cc3)nc(N3CCCC3)n2)cc1OC` the MIC (Plasmodium falciparum) was 1 µg/mL (≈ 2.65 µM) and the MIC [2] was 25 µg/mL (≈ 66.2 µM).

With `COc1ccc(-c2cc(-c3ccc(O)cc3)nc(N3CCN(Cc4ccccc4)CC3)n2)cc1` the MIC (Plasmodium falciparum) was 1 µg/mL (≈ 2.21 µM) and the MIC [1] was “inactive”.

For `Cc1ccc(-c2cc(-c3ccc(O)cc3)nc(N)n2)cc1`, the MIC (Plasmodium falciparum) was 50 µg/mL (≈ 180 µM) and the MIC [1] was “inactive”.

In the case of `COc1ccc(-c2cc(-c3ccc(O)cc3)nc(N)n2)cc1`, the MIC (Plasmodium falciparum) is reported as 50 µg/mL (≈ 170 µM) and the MIC [1] is reported as “inactive”.

In the case of `Cc1ccc(-c2cc(-c3ccc(O)cc3)nc(N3CCN(Cc4ccccc4)CC3)n2)cc1`, the MIC (Plasmodium falciparum) is reported as 2 µg/mL (≈ 4.58 µM) and the MIC [1] is reported as “inactive”.

For `Cc1ccc(-c2cc(-c3ccc(O)cc3)nc(N3CCCCC3)n2)cc1`, the MIC (Plasmodium falciparum) was 2 µg/mL (≈ 5.79 µM) and the MIC [1] was “inactive”.

With `COc1ccc(-c2cc(-c3ccc(O)cc3)nc(N3CCN(C)CC3)n2)cc1` the MIC (Plasmodium falciparum) was 0.5 µg/mL (≈ 1.33 µM) and the MIC [2] was 25 µg/mL (≈ 66.4 µM).

`COc1ccc(-c2cc(-c3ccc(O)cc3)nc(N)n2)cc1OC` showed an MIC (Plasmodium falciparum) of 10 µg/mL (≈ 30.9 µM) and an MIC [2] of 12.5 µg/mL (≈ 38.7 µM).

`COc1ccc(OC)c(-c2cc(-c3ccc(O)cc3)nc(N3CCCC3)n2)c1` gave an MIC (Plasmodium falciparum) of 1 µg/mL (≈ 2.65 µM) and an MIC [2] of 25 µg/mL (≈ 66.2 µM).

Work on `Oc1ccc(-c2cc(-c3ccccc3)nc(N3CCCCC3)n2)cc1` yielded an MIC (Plasmodium falciparum) of 2 µg/mL (≈ 6.03 µM) and an MIC [2] of 25 µg/mL (≈ 75.4 µM).

`COc1ccc(-c2cc(-c3ccc(O)cc3)nc(N3CCN(C)CC3)n2)cc1OC` was tested, and the MIC (Plasmodium falciparum) was 0.25 µg/mL (≈ 0.615 µM) and the MIC [2] was 12.5 µg/mL (≈ 30.8 µM).

For `Nc1nc(-c2ccccc2)cc(-c2ccc(O)cc2)n1`, the MIC (Plasmodium falciparum) was 10 µg/mL (≈ 38 µM) and the MIC [1] was “inactive”.

`COc1ccc(-c2cc(-c3ccc(O)cc3)nc(N3CCCCC3)n2)cc1OC` showed an MIC (Plasmodium falciparum) of 1 µg/mL (≈ 2.55 µM) and an MIC [2] of 25 µg/mL (≈ 63.9 µM).

`CN1CCN(c2nc(-c3ccccc3)cc(-c3ccc(O)cc3)n2)CC1` was tested, and the MIC (Plasmodium falciparum) was 0.5 µg/mL (≈ 1.44 µM) and the MIC [2] was 25 µg/mL (≈ 72.2 µM).

`COc1ccc(OC)c(-c2cc(-c3ccc(O)cc3)nc(N3CCN(c4ccccc4)CC3)n2)c1` was tested, and the MIC (Plasmodium falciparum) was 2 µg/mL (≈ 4.27 µM) and the MIC [1] was “inactive”.

In the case of `COc1ccc(-c2cc(-c3ccc(O)cc3)nc(N3CCN(Cc4ccccc4)CC3)n2)cc1OC`, the MIC (Plasmodium falciparum) is reported as 0.5 µg/mL (≈ 1.04 µM) and the MIC [1] is reported as “inactive”.

Molecule `COc1ccc(OC)c(-c2cc(-c3ccc(O)cc3)nc(N3CCN(Cc4ccccc4)CC3)n2)c1` has an MIC (Plasmodium falciparum) of 0.25 µg/mL (≈ 0.518 µM) and an MIC [2] of 25 µg/mL (≈ 51.8 µM).

Work on `Oc1ccc(-c2cc(-c3ccccc3)nc(N3CCN(c4ccccc4)CC3)n2)cc1` yielded an MIC (Plasmodium falciparum) of 10 µg/mL (≈ 24.5 µM) and an MIC [2] of 25 µg/mL (≈ 61.2 µM).

`Cc1ccc(-c2cc(-c3ccc(O)cc3)nc(N3CCN(c4ccccc4)CC3)n2)cc1` was tested, and the MIC (Plasmodium falciparum) was 10 µg/mL (≈ 23.7 µM) and the MIC [1] was “inactive”.

Molecule `COc1ccc(OC)c(-c2cc(-c3ccc(O)cc3)nc(N3CCN(C)CC3)n2)c1` has an MIC (Plasmodium falciparum) of 0.25 µg/mL (≈ 0.615 µM) and an MIC [2] of 12.5 µg/mL (≈ 30.8 µM).

`COc1ccc(-c2cc(-c3ccc(O)cc3)nc(N3CCCCC3)n2)cc1` was tested, and the MIC (Plasmodium falciparum) was 0.5 µg/mL (≈ 1.38 µM) and the MIC [1] was “inactive”.
